Assay results reported in the Deep4Chem optical property database.

Assay: solvent given as SMILES

Q: Which absorption maximum (in ClCCl) does the source give for `CC(C)(C)c1cc(-c2c3cc(c(-c4cc(C(C)(C)C)cc(C(C)(C)C)c4)c4ccc([nH]4)c(-c4ccc(Br)cc4)c4nc(c(-c5ccc(Br)cc5)c5ccc2[nH]5)C=C4)N=C3)cc(C(C)(C)C)c1` here?
A: 726 nm

Q: Which absorption maximum (in Cc1ccccc1) does the source give for `O=Cc1nc2ccc(C#Cc3ccc(N(c4ccc(C#Cc5ccc6nc(C=O)sc6c5)cc4)c4ccc(C#Cc5ccc6nc(C=O)sc6c5)cc4)cc3)cc2s1` here?
A: 414 nm

Q: Which absorption maximum (in C1CCOC1) does the source give for `Cc1ccc(C)n1-c1ccc(C#N)cc1` here?
A: 275 nm

Q: What about the absorption maximum (in CCCCCC) of the same compound?
A: 275 nm

Q: What about the absorption maximum (in CCCCCl) of the same compound?
A: 275 nm

Q: What about the absorption maximum (in CCOCC) of the same compound?
A: 275 nm

Q: For `CCCCn1cc(/C=C/c2cc(=O)oc3cc(C)ccc23)c2ccccc21`, which absorption maximum (in CS(C)=O) is on record?
A: 414 nm

Q: And the absorption maximum (in ClC(Cl)Cl)?
A: 398 nm

Q: For `CC1=C(c2cccs2)C(C)=[N+]2C1=C(c1ccccc1)c1c(C)c(-c3cccs3)c(C)n1[B-]2(F)F`, which absorption maximum (in CO) is on record?
A: 521 nm

Q: What about the absorption maximum (in Cc1ccccc1) of the same compound?
A: 530 nm

Q: And the absorption maximum (in ClCCl)?
A: 527 nm

Q: With `O=C(O)c1ccc2ccc3cccc4ccc1c2c34` as the compound, how does the absorption maximum (in C1CCOC1) read?
A: 379 nm

Q: And the absorption maximum (in CC#N)?
A: 379 nm

Q: And the absorption maximum (in CCCCCC)?
A: 381 nm

Q: What about the absorption maximum (in CCO) of the same compound?
A: 340 nm

Q: And the absorption maximum (in CN(C)C=O)?
A: 377 nm

Q: And the absorption maximum (in CO)?
A: 339 nm

Q: What about the absorption maximum (in Cc1ccccc1) of the same compound?
A: 382 nm

Q: And the absorption maximum (in ClCCl)?
A: 382 nm

Q: Which absorption maximum (in Cc1ccccc1) does the source give for `CC1(C)OB(c2cc3ccc4cccc5ccc(c2)c3c45)OC1(C)C` here?
A: 385 nm

Q: What does the source list for `C#CCN1C(=O)/C(=C/c2cc(OC(C)C)ccc2OC(C)C)N=C1C`?
A: absorption maximum (in C1COCCO1): 396 nm; absorption maximum (in CC#N): 395 nm; absorption maximum (in CC(C)=O): 394 nm; absorption maximum (in CCCCCC): 392 nm; absorption maximum (in CCCCO): 400 nm; absorption maximum (in CCCO): 400 nm; absorption maximum (in CCO): 399 nm; absorption maximum (in CCOC(C)=O): 393 nm; absorption maximum (in CN(C)C=O): 399 nm; absorption maximum (in CO): 398 nm; absorption maximum (in CS(C)=O): 401 nm

Q: With `CCn1c(-c2ccc(-c3ccc4ccc5cccc6ccc3c4c56)cc2)c(-c2ccc3ccccc3c2)c(-c2ccc3ccccc3c2)c1-c1ccc(-c2ccc3ccc4cccc5ccc2c3c45)cc1` as the compound, how does the absorption maximum (in CCOC(C)=O) read?
A: 344 nm

Q: Which absorption maximum (in CC#N) does the source give for `N#Cc1nn(-c2ccccc2)nc1N1CCCC1` here?
A: 340 nm

Q: With `COc1cc(OC)cc(C2=C3C(C)=C(I)C(/C=C/c4c[nH]c5ccccc45)=[N+]3[B-](F)(F)n3c(/C=C/c4c[nH]c5ccccc45)c(I)c(C)c32)c1` as the compound, how does the absorption maximum (in C1CCOC1) read?
A: 715 nm

Q: And the absorption maximum (in CS(C)=O)?
A: 727 nm

Q: What about the absorption maximum (in ClCCl) of the same compound?
A: 702 nm

Q: Which absorption maximum (in ClC(Cl)Cl) does the source give for `F[B-]1(F)OC(c2cc3c4c(c2)CCCN4CCC3)=Cc2cccc[n+]21` here?
A: 450 nm

Q: For `O=C1Nc2ccccc2/C1=C/C(=O)c1ccc(Cl)cc1Cl`, which absorption maximum (in C1CCCCC1) is on record?
A: 336 nm

Q: What about the absorption maximum (in C1COCCO1) of the same compound?
A: 337 nm

Q: What about the absorption maximum (in CC#N) of the same compound?
A: 334 nm

Q: What about the absorption maximum (in CC(C)(C)O) of the same compound?
A: 339 nm

Q: What about the absorption maximum (in CC(C)O) of the same compound?
A: 339 nm

Q: And the absorption maximum (in CCCCCC)?
A: 334 nm

Q: And the absorption maximum (in CCCCO)?
A: 341 nm

Q: What about the absorption maximum (in CCOC(C)=O) of the same compound?
A: 335 nm

Q: And the absorption maximum (in CN(C)C=O)?
A: 340 nm

Q: And the absorption maximum (in CO)?
A: 339 nm

Q: What about the absorption maximum (in ClCCl) of the same compound?
A: 339 nm

Q: What about the absorption maximum (in O) of the same compound?
A: 340 nm

Q: With `CCN(CC)c1ccc2c(c1)oc(=O)c1c(=O)oc3c(C)c4oc(=O)c5c(=O)oc6cc(N(CC)CC)ccc6c5c4cc3c12` as the compound, how does the absorption maximum (in CS(C)=O) read?
A: 463 nm

Q: And the absorption maximum (in ClCCl)?
A: 458 nm

Q: With `CC(C)(C)c1ccc2c(c1)c1cc(C(C)(C)C)ccc1n2-c1ccc(-c2nc3cc(C#N)c(C#N)cc3nc2-c2ccc(-n3c4ccc(C(C)(C)C)cc4c4cc(C(C)(C)C)ccc43)cc2)cc1` as the compound, how does the absorption maximum (in Cc1ccccc1) read?
A: 443 nm

Q: For `COc1ccc(C2=C(c3ccc(OC)cc3)C(C)(C)c3ccccc32)cc1`, which absorption maximum (in C1CCCCC1) is on record?
A: 283 nm

Q: For `CCn1c2ccccc2c2cc(-c3cc(-c4ccc5c(c4)c4ccccc4n5CC)nc(C#N)n3)ccc21`, which absorption maximum (in C1CCOC1) is on record?
A: 381 nm

Q: What about the absorption maximum (in CCOC(C)=O) of the same compound?
A: 378 nm

Q: What about the absorption maximum (in CN(C)C=O) of the same compound?
A: 387 nm

Q: And the absorption maximum (in Cc1ccccc1)?
A: 380 nm

Q: And the absorption maximum (in ClCCl)?
A: 381 nm

Q: Which absorption maximum (in ClC(Cl)Cl) does the source give for `CCCCCCCCN1C(=O)c2ccc3c4c(-c5ccc6c(c5)c5ccccc5n6-c5ccccc5)cc5c6c(ccc(c7c(-c8ccc9c(c8)c8ccccc8n9-c8ccccc8)cc(c2c37)C1=O)c64)C(=O)N(CCCCCCCC)C5=O` here?
A: 609 nm

Q: What does the source list for `CCCCCCCCCCCCCCCC[n+]1ccc(/C=C/c2ccc(N(C)C)cc2)cc1`?
A: absorption maximum (in C1COCCO1): 463 nm; absorption maximum (in CC(C)=O): 477 nm; absorption maximum (in CC(C)O): 481.2 nm; absorption maximum (in CCCCCC): 454.6 nm; absorption maximum (in CCCCO): 487.1 nm; absorption maximum (in CCCO): 485.6 nm; absorption maximum (in CCO): 484.9 nm; absorption maximum (in CN(C)C=O): 475.3 nm; absorption maximum (in CO): 480.2 nm; absorption maximum (in CS(C)=O): 479 nm; absorption maximum (in Cc1ccccc1): 474.8 nm; absorption maximum (in ClC(Cl)(Cl)Cl): 467.2 nm; absorption maximum (in ClC(Cl)Cl): 493 nm; absorption maximum (in ClCCl): 515.2 nm; absorption maximum (in c1ccccc1): 476 nm
